Read-outs that look alike come from different tables or passages of the source.
Experiments:
[1] = 14C-penclomedine, tumor-bearing rats; cited from earlier work
[2] = rats; cited from earlier work
[3] = Cytotoxicity in vitro; assay type: cell-based
[4] = one hour infusion for 5 consecutive days, patients; cited from earlier work
[5] = test system: P388/L-PAM (melphalan-resistant) leukemia; conditions: for 50-DAY SURV./TOTAL: Q1D × 5 (1)
[6] = test system: P388/CPA (cyclophosphamide-resistant) leukemia; assay type: in vivo, CD2F1 female mice; conditions: Q1D × 5 (1)
[7] = test system: P388/0 murine leukemia; conditions: Q1D × 5 (1)
[8] = dogs; cited from earlier work
[9] = test system: P388/BCNU (carmustine-resistant) leukemia; test: Antitumor activity against IP-implanted P388/BCNU leukemia; conditions: Q1D × 5 (1)
[10] = test system: human MX-1 mammary tumor (ic, 10^6 cells); test: In vivo antitumor activity, i.c.-implanted MX-1 xenograft
[11] = optimal doses (LD10 or less), schedule QD1-5, administered LP.

Compound: COc1nc(C(Cl)(Cl)Cl)c(Cl)c(OC)c1Cl [PEN, 3,5-dichloro-2,4-dimethoxy-6-(trichloromethyl)pyridine]
- radioactive species in the brain [1]: predominant radioactive species in the brain
- neurotoxicity (muscle tremors, incoordination, convulsions, reduced activity) [2]: Dose related neurotoxicity
- activity as cytotoxic agents in vitro [3]: inactive
- neurotoxicity (dysmetria, ataxia, vertigo) [4]: principal dose limiting toxicity
- 50-DAY SURV./TOTAL ([5]; IP 60.0 mg/kg/dose): 0/6
- 50-DAY SURV./TOTAL ([5]; IP 90.0 mg/kg/dose): 0/6
- 50-DAY SURV./TOTAL ([5]; IP 135.0 mg/kg/dose): 0/6
- activity in this tumor model (in words) ([5]; mouse, in vivo): none of the three showed significant activity
- 50-DAY SURV./TOTAL ([6]; IP 60.0 mg/kg/dose): 0/6
- % ILS ([6]; IP 60.0 mg/kg/dose): −5%
- 50-DAY SURV./TOTAL ([6]; IP 90.0 mg/kg/dose): 0/6
- % ILS ([6]; IP 90.0 mg/kg/dose): −5%
- 50-DAY SURV./TOTAL ([6]; IP 135.0 mg/kg/dose): 0/6
- % ILS ([6]; IP 135.0 mg/kg/dose): −5%
- 50-DAY SURV./TOTAL ([7]; IP 60.0 mg/kg/dose): 0/6
- 50-DAY SURV./TOTAL ([7]; IP 90.0 mg/kg/dose): 0/6
- APPROX. NET LOG10 CHANGE IN TUMOR BURDEN AT END OF Rx ([7]; IP 90.0 mg/kg/dose): −0.8
- 50-DAY SURV./TOTAL ([7]; IP 135.0 mg/kg/dose): 0/6
- APPROX. NET LOG10 CHANGE IN TUMOR BURDEN AT END OF Rx ([7]; IP 135.0 mg/kg/dose): −4.8
- plasma penclomedine levels associated with severe emesis and seizures [8]: above 30 μM
- 50-DAY SURV./TOTAL ([9]; IP 60.0 mg/kg/dose): 0/6
- % ILS ([9]; IP 60.0 mg/kg/dose): −6%
- 50-DAY SURV./TOTAL ([9]; IP 90.0 mg/kg/dose): 0/6
- % ILS ([9]; IP 90.0 mg/kg/dose): 0%
- MEDIAN DAY OF DEATH ([9]; IP 90.0 mg/kg/dose): 9.0
- 50-DAY SURV./TOTAL ([9]; IP 135.0 mg/kg/dose): 0/6
- % ILS ([9]; IP 135.0 mg/kg/dose): +27%
- cures ([10]; Table 2 conditions): not
- Median % ILS (based on dying mice only) [10, 11]: 88%
- Survivors [10, 11]: 0/5

— patent US6495571B1, “Pyridine compounds, use and preparation thereof” (Southern Research Institute, priority 1999, dated 2002)
